Results as given in patent US8642643B2, “CXCR2 antagonists” (Sanofi, priority 2006, dated 2014).

The compounds below were run against T1, human CXCR2 (Homo sapiens, UniProt P25025) (assay: CXCR2 inhibition: calcium fluorescence assay (FLIPR)). Conditions: chemokine IL-8; CHO-K1 cells stably transfected with human CXCR2 and Gα16; calcium response (Fluo-4).
T1 construct: expressed in transfected cells; host or cells: CHO-K1
T1 sequence (P25025 1-360): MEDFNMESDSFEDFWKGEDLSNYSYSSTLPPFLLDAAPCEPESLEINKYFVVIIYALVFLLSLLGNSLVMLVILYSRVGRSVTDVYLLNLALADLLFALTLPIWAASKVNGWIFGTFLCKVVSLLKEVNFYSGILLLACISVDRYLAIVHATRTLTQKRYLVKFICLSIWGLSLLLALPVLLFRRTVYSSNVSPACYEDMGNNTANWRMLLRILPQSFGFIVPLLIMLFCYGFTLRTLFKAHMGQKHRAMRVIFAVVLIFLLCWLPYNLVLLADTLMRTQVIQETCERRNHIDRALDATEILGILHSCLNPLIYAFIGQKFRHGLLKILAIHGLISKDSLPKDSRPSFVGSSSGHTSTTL
Type: cell-based
Source text: Determination of CXCR2 Inhibition: Calcium Fluorescence Assay (FLIPR)
The assay is based on the detection of intracellular calcium changes detected by the selective, calcium-chelating dye, Fluo-4 (Molecular Probes). A large fluorescence intensity increase is observed upon calcium association with Fluo-4. The dye is delivered to the cell interior using an acetoxymethylester form of Fluo-4, where the intracellular esterase activity results in the charged species being released and trapped within the cytoplasm of the cell. […] By co-expressing the CXCR2 receptor and the promiscuous Gα16 protein, activation of this chemokine receptor is directed into this phospholipase C cascade resulting in intracellular calcium mobilization.
The CHO-K1 cells stably transfected with human CXCR2 and the promiscuous Gα16 protein were maintained in a log phase of growth at 37° C. and 5% CO2 in the following media: Iscove's, 10% FBS, 1× Penicillin-Streptomycin, 400 μg/ml G418 and 350 μg/ml Zeocin. Approximately 24-48 hours prior to the assay, 20,000-30,000 cells/well were plated onto a 96-well black/clear bottomed assay plate (Becton Dickinson) with a well volume of 180 μl. For dye loading the culture medium was carefully removed and replaced by 100 μl/well dye solution (4 μM Fluo-4 in 135 mM NaCl, 5 mM KCl, 1 mM magnesium sulphate, 5 mM glucose, 20 mM hepes, 2.5 mM probenecid; pH 7.4). Cells were incubated for 1 h at 37° C., and then washed 3× with buffer. After washing 90 μl buffer/well were left. Increasing concentrations of compound was added in 45 μl buffer (4× concentrated) followed by 10 min incubation at 37° C. Then the chemokine (10-100 nM) was applied in 45 μl buffer (4× concentrated) and the measurement performed for 2 min. The IC50 value of a compound was determined by calculation of % inhibition of total calcium response to the chemokine.

Row | Compound | IC50
1 | CC(C)(NC(=O)c1ccc2c(c1OCc1ccc(C(F)(F)F)cc1F)CCCC2)C(=O)O [Example 8, 2-{[1-(2-Fluoro-4-trifluoromethyl-benzyloxy)-5,6,7,8-tetrahydro-naphthalene-2-carbonyl]-amino}-2-methyl-propionic acid] | 1800 nM
2 | CCC(C)(NC(=O)c1ccc2c(c1OCc1ccc(OC(F)(F)F)cc1)CCCC2)C(=O)O (stereo not shown) [Example 9, 2-Methyl-2-{[1-(4-trifluoromethoxy-benzyloxy)-5,6,7,8-tetrahydro-naphthalene-2-carbonyl]-amino}-butyric acid] | 1500 nM
3 | Cc1cc(C(=O)NC(C)(C)C(=O)O)c(OCc2ccc(C(F)(F)F)cc2)c2c1CCC2 [Example 11, 2-Methyl-2-{[7-methyl-4-(4-trifluoromethyl-benzyloxy)-indane-5-carbonyl]-amino}-propionic acid] | 1600 nM
4 | CC(C)(NC(=O)c1ccc2ccsc2c1OCc1ccc(C(F)(F)F)cc1)C(=O)O [Example 12, 2-Methyl-2-{[7-(4-trifluoromethyl-benzyloxy)-benzo[b]thiophene-6-carbonyl]-amino}-propionic acid] | 700 nM
5 | CC(C)(NC(=O)c1ccc2sccc2c1OCc1ccc(C(F)(F)F)cc1)C(=O)O [Example 13, 2-Methyl-2-{[4-(4-trifluoromethyl-benzyloxy)-benzo[b]thiophene-5-carbonyl]-amino}-propionic acid] | 1100 nM

The next compounds have a lower IC50 than those just listed; values first:

Row | IC50 | Compound
6 | 600 nM | CC(C)(NC(=O)c1ccc2c(c1OCc1nc3ccccc3s1)CCCC2)C(=O)O [Example 2, 2-{[1-(Benzothiazol-2-ylmethoxy)-5,6,7,8-tetrahydro-naphthalene-2-carbonyl]-amino}-2-methyl-propionic acid]
7 | 400 nM | CCC(C)(NC(=O)c1ccc2c(c1OCc1nc3ccccc3s1)CCCC2)C(=O)O (stereo not shown) [Example 5, 2-{[1-(Benzothiazol-2-ylmethoxy)-5,6,7,8-tetrahydro-naphthalene-2-carbonyl]-amino}-2-methyl-butyric acid]
